Among the data in PubChem BioAssay AID504568 (NMMLSC, 2011) are double-positive events (T cell-vesicle binding) and mean fluorescence percent response values, retold here.

This experiment concerns 2C TCR mouse CD8+ T cells, vesicle binding, flow cytometry. As to the kind of experiment: modulators of T cell-vesicle binding via LFA-1, confirmation, powder samples, single concentration, mouse 2C TCR, flow cytometry (AID 504568).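 On all read-outs here: lower values mean less vesicle binding and point to an inhibitor.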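 On double-positive events (T cell-vesicle binding): the gate for binding is set so anti-LFA-1 blocked control wells show 10% double positives.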 The following applies: stronger effect = lower value; for mean fluorescence percent response: measured here: CD8+ cell vesicle fluorescence mean. In general terms: A flow cytometer gives signals particle by particle.

Molecules are shown by their SMILES. Calls of active or inactive are those of the source.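 How the source made its calls: active means binding readouts below 60% of the midpoint between blocked and unblocked controls, with summed weighted score above 1; inactive means the rest.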

As to `Cc1cc(=O)oc2c3c(cc(OCC(=O)NCc4ccncc4)c12)OC(C)(C)CC3`, the double-positive events (T cell-vesicle binding) is 20.8% and the mean fluorescence percent response was 128%.
Turning to `Cc1ccc(NC(=O)COC(=O)CCc2c[nH]c3ccccc23)c(C)c1`, the double-positive events (T cell-vesicle binding) is 25.1% and the mean fluorescence percent response stood at 147%.
The matching figures for `O=C1CC(c2nc3ccccc3[nH]2)CN1Cc1ccccc1` (centres undefined): 22.6% and 124%.
For `Cc1cccc(NC(=O)C2CCN(S(=O)(=O)c3c(C)[nH]c(=O)[nH]c3=O)CC2)c1` the same measures were 27.4% (inactive) and 161%.
Take `CC(=O)c1ccc(-c2csc(N3CCC(C(N)=O)CC3)n2)cc1`: the double-positive events (T cell-vesicle binding) is 26.5% (inactive) and the mean fluorescence percent response came out at 153%.
Turning to `CCN(CC)CCNC(=O)CCCNC(=O)Cn1cnc2sc(C)c(C)c2c1=O`, the double-positive events (T cell-vesicle binding) was 30.9% (inactive) and the mean fluorescence percent response is 196%.
On to `CCOc1ccc(-c2nc(N)ncc2-c2ccccc2)c(O)c1`, for which the double-positive events (T cell-vesicle binding) is 20.9% and the mean fluorescence percent response is 126%.
`CCCNC(=O)c1nc2ncc(Br)cn2n1`: the double-positive events (T cell-vesicle binding) is 25.8% (inactive) and the mean fluorescence percent response worked out at 154%.
For `CCCCn1nc(C(=O)N2CCN(S(=O)(=O)c3ccccc3)CC2)c2ccccc2c1=O`, the double-positive events (T cell-vesicle binding) is 28.1% (inactive) and the mean fluorescence percent response was determined as 145%.
With `CN1CCN(S(=O)(=O)c2cccc(C(=O)Nc3cc(C(F)(F)F)ccc3N3CCCCC3)c2)CC1`, the double-positive events (T cell-vesicle binding) is 21.7% and the mean fluorescence percent response was found to be 105%.
For `COc1ccc(S(=O)(=O)N2CCCCC2)cc1NC(=O)c1cnc(C)cn1` the same measures were 26.7% (inactive) and 173%.
For `Cc1ccc(OCCOC(=O)c2cc(S(=O)(=O)N3CCCCC3)ccc2N2CCOCC2)cc1`, the double-positive events (T cell-vesicle binding) was 20.9% and the mean fluorescence percent response came to 134%.
For `COc1ccc([N+](=O)[O-])cc1NC(=O)c1ccc(N(Cc2ccccc2C)S(C)(=O)=O)cc1` the same measures were 23% and 105%.
`Cc1ncc([N+](=O)[O-])n1Cc1cccc(F)c1`: the double-positive events (T cell-vesicle binding) was 28.5% (inactive) and the mean fluorescence percent response was 152%.
With `Cc1ccc(N2CC(C(=O)NC3=NCCS3)CC2=O)cc1` (centres undefined), the double-positive events (T cell-vesicle binding) was 21.9% (inactive) and the mean fluorescence percent response came out at 161%.
In the case of `COc1ccccc1CNC(=O)COc1ccc(C)cc1`, the double-positive events (T cell-vesicle binding) was 24.8% (inactive) and the mean fluorescence percent response is 173%.
In the case of `COc1ccccc1NS(=O)(=O)c1cc(NC(=O)CNC(=O)c2cc(C)cc(C)c2)ccc1C`, the double-positive events (T cell-vesicle binding) is 27.3% (inactive) and the mean fluorescence percent response was determined as 153%.
`CN1CCN(S(=O)(=O)c2ccc(C(=O)Nc3ccccc3)cc2)CC1`: the double-positive events (T cell-vesicle binding) is 26.1% (inactive) and the mean fluorescence percent response was determined as 138%.
For `Cc1ccc(Cn2c([N+](=O)[O-])cnc2C)cc1`, the double-positive events (T cell-vesicle binding) was 23.1% and the mean fluorescence percent response is 153%.
For `O=C(NCC1CCCCC1)c1ccc(Cl)c(S(=O)(=O)N2CCOCC2)c1` the same measures were 17.8% and 136%.
With `CCCc1nnc(NC(=O)c2ccc(S(=O)(=O)N(C)c3ccccc3OC)cc2)s1`, the double-positive events (T cell-vesicle binding) is 26.1% (inactive) and the mean fluorescence percent response was determined as 131%.
`CCOC(=O)c1ccc(NC(=O)CN2C(=O)NC3(CCCCCCC3)C2=O)cc1`: the double-positive events (T cell-vesicle binding) was 27.4% and the mean fluorescence percent response was found to be 149%.
Take `COC(=O)c1ccccc1NC(=O)C1CCN(C(=O)c2cc(OC)cc(OC)c2)CC1`: the double-positive events (T cell-vesicle binding) is 29.9% (inactive) and the mean fluorescence percent response was 172%.
With `Cc1cc(C)n(C(=O)c2sc3cc(F)ccc3c2Cl)n1`, the double-positive events (T cell-vesicle binding) was 24.5% and the mean fluorescence percent response came out at 90.2%.
Take `Cc1ccc(O)c(CCc2ccccc2)n1`: the double-positive events (T cell-vesicle binding) was 22.9% and the mean fluorescence percent response amounted to 120%.
Regarding `CCC1(C)NC(=O)N(CC(=O)N2N=C(c3ccccc3)CC2c2ccc(OC)cc2)C1=O` (centres undefined), the double-positive events (T cell-vesicle binding) is 24% (inactive) and the mean fluorescence percent response is 144%.
The matching figures for `COc1ccc(Nc2ccccc2N)cc1`: 32.7% (inactive) and 138%.
In the case of `COc1ccc(CNC(=O)c2cccnc2SC)cc1OC`, the double-positive events (T cell-vesicle binding) was 26.7% (inactive) and the mean fluorescence percent response worked out at 163%.
Take `CN(C)S(=O)(=O)c1cccc(-n2sc3ccccc3c2=O)c1`: the double-positive events (T cell-vesicle binding) is 17.7% and the mean fluorescence percent response was 109%.
Regarding `O=C(CC1=NCCNC(c2ccccc2)C1)c1ccccc1O` (centres undefined), the double-positive events (T cell-vesicle binding) was 28% (inactive) and the mean fluorescence percent response was 170%.
For `COc1ccc(C2=Nc3cc(C)ccc3OC2)cc1` the same measures were 26.7% (inactive) and 140%.
Turning to `CCOC(=O)N1CCN(C(=O)c2ccc(CS(=O)Cc3ccc(C)cc3)o2)CC1` (centres undefined), the double-positive events (T cell-vesicle binding) is 26.5% (inactive) and the mean fluorescence percent response was 146%.
As to `CCC(C(=O)Nc1ccccc1)c1ccccc1` (centres undefined), the double-positive events (T cell-vesicle binding) is 24.6% and the mean fluorescence percent response is 131%.
The matching figures for `COc1ccc(NC(=O)CC2C(=O)N(Cc3ccccc3)C(=S)N2CCN2CCOCC2)cc1` (centres undefined): 28.8% (inactive) and 149%.
Turning to `COc1ccc(C(O)c2coc3ccc(O)c(CN(C)C)c23)cc1` (centres undefined), the double-positive events (T cell-vesicle binding) is 21.7% (inactive) and the mean fluorescence percent response is 162%.
`O=C(NCCN1CCN(c2ccccc2)CC1)c1cccc(Br)c1`: the double-positive events (T cell-vesicle binding) was 24.2% (inactive) and the mean fluorescence percent response was found to be 152%.
Turning to `O=C(NCCC1=CCCCC1)C(=O)NCC(c1ccco1)N1CCN(c2ccccc2F)CC1` (centres undefined), the double-positive events (T cell-vesicle binding) is 26.1% (inactive) and the mean fluorescence percent response worked out at 116%.
For the compound `O=C(NNS(=O)(=O)c1ccc2ccccc2c1)c1cccs1`, the double-positive events (T cell-vesicle binding) was 23.5% (inactive) and the mean fluorescence percent response was found to be 149%.
For `Cc1sc2ncnc(NCC(C)(C)N3CCOCC3)c2c1C` the same measures were 20.2% and 126%.
With `O=C(OCCOc1cccc(Cl)c1)c1ccc(F)c(S(=O)(=O)N2CCOCC2)c1`, the double-positive events (T cell-vesicle binding) was 25.8% (inactive) and the mean fluorescence percent response was determined as 163%.
On to `Cn1c(CNC(=O)CNC(=O)c2ccc(F)cc2)cc(=O)n(C)c1=O`, for which the double-positive events (T cell-vesicle binding) was 29.7% (inactive) and the mean fluorescence percent response stood at 165%.
With `COc1ccc(/C=C2\SC(=S)N(CCC(=O)N3CCOCC3)C2=O)cc1`, the double-positive events (T cell-vesicle binding) is 22.1% and the mean fluorescence percent response was found to be 102%.
Consider `CCN(CC)C(=O)N1CCN(S(=O)(=O)c2ccc(C)cc2)CC1`, for which the double-positive events (T cell-vesicle binding) is 26% (inactive) and the mean fluorescence percent response stood at 129%.
Take `CCOC(=O)c1ccc(S(=O)(=O)N2CCN(C3CCCC3)CC2)cc1`: the double-positive events (T cell-vesicle binding) is 23% (inactive) and the mean fluorescence percent response was found to be 155%.
The matching figures for `Cc1ccc(S(=O)(=O)N2CCN(S(=O)(=O)N(C)C)CC2)c(C)c1`: 24.7% and 139%.
For `CCOCC(=O)Nc1ccc(S(=O)(=O)N2CCC(c3nc4ccccc4[nH]3)CC2)cc1`, the double-positive events (T cell-vesicle binding) is 16.4% and the mean fluorescence percent response was 97.1%.
Regarding `c1ccc(COc2ccc(OCCN3CCCCC3)cc2)cc1`, the double-positive events (T cell-vesicle binding) was 20.7% and the mean fluorescence percent response was 133%.
The matching figures for `O=C(CS(=O)(=O)Cc1ccccc1)N1CCc2ccccc21`: 25.6% (inactive) and 159%.
Take `NC(=O)C1CCN(c2nc(-c3cc4ccccc4o3)cs2)CC1`: the double-positive events (T cell-vesicle binding) was 26.2% (inactive) and the mean fluorescence percent response was 140%.
For the compound `CN(C)S(=O)(=O)c1ccc(C(=O)NCCc2ccco2)cc1`, the double-positive events (T cell-vesicle binding) is 22.8% and the mean fluorescence percent response stood at 122%.
On to `COCCCN1CCc2[nH]c(=S)[nH]c(=O)c2C1`, for which the double-positive events (T cell-vesicle binding) is 28% (inactive) and the mean fluorescence percent response was determined as 169%.
Turning to `CCOc1ccc(CCNC(=O)CCS(=O)(=O)c2ccc(C)cc2)cc1OCC`, the double-positive events (T cell-vesicle binding) is 23.5% and the mean fluorescence percent response stood at 117%.
The matching figures for `CC1CCCCC1NC(=O)COC(=O)c1ccc2ncsc2c1` (centres undefined): 19.9% and 111%.
For `O=C(c1ccc(N2C(=O)C3CC=C(Cl)CC3C2=O)cc1)N1CCCCC1` (centres undefined), the double-positive events (T cell-vesicle binding) is 22.8% (inactive) and the mean fluorescence percent response turned out to be 130%.
Regarding `CC(=O)Nc1ccc(S(=O)(=O)NC2CCSc3ccccc32)cc1` (centres undefined), the double-positive events (T cell-vesicle binding) is 23.2% (inactive) and the mean fluorescence percent response turned out to be 120%.
The matching figures for `CCOC(=O)c1c(C=O)c2ccccc2n1CC`: 20.5% and 148%.
On to `COc1ccc(N2CC(C(=O)NC(C)C(=O)NCc3ccccc3OC)CC2=O)cc1` (centres undefined), for which the double-positive events (T cell-vesicle binding) was 27.3% (inactive) and the mean fluorescence percent response was determined as 177%.
